Assay results published in patent US5905068A, “Retroviral protease inhibiting compounds” (Abbott Laboratories, priority 1996, dated 1999).

Experiments:
HIVIIIB = assay: Antiviral Activity: anti-HIV activity in MT4 cells infected with HIVIIIB (MTT); type: cell-based; settings: MOI 0.003, 5 days, n=four duplicate determinations
Procedure, shortened: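 MT4 cells infected 1 h with HIVIIIB at 0.003 MOI, washed, seeded at 1×10^4 cells/well with half-log compound dilutions in RPMI 1640 plus 10% FBS and added human serum (final 60%, 35% or 22.5% total serum), 5 days at 37 °C. Viability read by MTT at 570/650 nm; EC50 by median effect equation, CTC50 on uninfected MT4 cells.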

uninfected MT4 cells = assay: Cytotoxicity in uninfected MT4 cells (MTT); type: cell-based; settings: 5 days, n=four duplicate determinations, read-out: CTC50 (50% cytotoxicity concentration)
Procedure, shortened: (§1)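 Uninfected MT4 cells, 1×10^4 per well, incubated 5 days at 37 °C with half-log compound dilutions. Viability read by MTT-type OD at 570/650 nm after SDS/HCl lysis overnight. CTC50 taken as 50% cytotoxicity concentration.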

HIV-1 protease = HIV-1 protease (Human immunodeficiency virus type 1 group M subtype B, UniProt P04585); assay: Fluorogenic Assay for Screening Inhibitors of HIV Protease
Method: The inhibitory potency of the compounds of the invention were determined by the following method: The compound of the invention was dissolved in DMSO and a small aliquot further diluted with DMSO to 100 times the final concentration desired for testing. The reaction was carried out in a 6×50 mm tube in a total volume of 300 microliters. […] After addition of inhibitor, the reaction mixture was placed in the fluorometer cell holder and incubated at 30° C. for several minutes. The reaction was initiated by the addition of a small aliquot of cold HIV protease. The fluorescence intensity (excitation 340 nm, emission 490 nm) was recorded as a function of time. The reaction rate was determined for the first six to eight minutes. The observed rate was directly proportional to the moles of substrate cleaved per unit time. The percent inhibition was calculated according to the equation: 100×(1-(rate of inhibitor)/(rate in absence of inhibitor)). As a control, duplicate reactions were performed identically as above but without the addition of an inhibitor compound.

[1] = Cytotoxicity in uninfected MT4 cells (MTT); type: cell-based; settings: human, 5 days, n=four duplicate determinations, read-out: CTC50 (50% cytotoxicity concentration)
Procedure, shortened: as §1

[2] = Effect of ritonavir on pharmacokinetics of the co-administered compound of this invention; type: in vivo; settings: ritonavir in combination with a compound of this invention
[3] = Human immunodeficiency virus 1, 120 h

Compound | EC50 (HIVIIIB; [3]) [nM] | CC50 at 120 h [1] [nM] | inhibition at 0.0005 µM (HIV-1 protease; pH 4.5) [%] | further results
Cc1ccc(OCC(=O)N[C@@H](Cc2ccccc2)C[C@H](O)[C@H](Cc2ccccc2)NC(=O)O[C@H]2CO[C@H]3OCC[C@H]32)c(C)n1 [Example 10, (2S,3S,5S)-5-(2,6-Dimethyl-pyridin-3-yl-oxyacetyl)amino-2-((3R,3aS,6aR)-bis-tetrahydrofuran-3-yl-oxycarbonyl)amino-1,6-diphenyl-3-hydroxyhexane] |  |  |  | EC50 (HIVIIIB): 184 nM; CC50 (uninfected MT4 cells): > 100000 nM; % Inhibition (HIV-1 protease; 0.5 nM inhibitor, pH 4.5, 30° C.): 49%
O=C(N[C@@H](Cc1ccccc1)[C@@H](O)C[C@H](Cc1ccccc1)NC(=O)c1ccc(O)cc1Cl)O[C@H]1CO[C@H]2OCC[C@H]21 [Example 57, (2S,3S,5S)-5-(2-Chloro-4-hydroxy-benzoyl)amino-2-((3R,3aS,6aR)-bis-tetrahydrofuran-3-yl-oxycarbonyl)amino-1,6-diphenyl-3-hydroxyhexane] | 120 | 80900 | 78 | 
O=C(N[C@@H](Cc1ccccc1)[C@@H](O)C[C@H](Cc1ccccc1)NC(=O)c1cccc(O)c1)O[C@@H]1CO[C@@H]2OCC[C@@H]21 [Example 58, (2S,3S,5S)-5-(3-Hydroxy-benzoyl)amino-2-((3S,3aR,6aS)-bis-tetrahydrofuran-3-yl-oxycarbonyl)amino-1,6-diphenyl-3-hydroxyhexane] | 2610 | > 100000 |  | inhibition at 0.0011 µM (HIV-1 protease; pH 4.5): 50%
Cc1c(O)cccc1C(=O)N[C@@H](Cc1ccccc1)[C@@H](O)C[C@H](Cc1ccccc1)NC(=O)O[C@H]1CO[C@H]2OCC[C@H]21 [Example 59, (2S,3S,5S)-2-(3-Hydroxy-2-methyl-benzoyl)amino-5-((3R,3aS,6aR)-bis-tetrahydrofuran-3-yl-oxycarbonyl)amino-1,6-diphenyl-3-hydroxyhexane] | 153 | > 100000 | 67 | 
Cc1c(O)cccc1C(=O)N[C@@H](Cc1ccccc1)[C@@H](O)C[C@H](Cc1ccccc1)NC(=O)O[C@@H]1CO[C@@H]2OCC[C@@H]21 [Example 60, (2S,3S,5S)-2-(3-Hydroxy-2-methyl-benzoyl)amino-5-((3S,3aR,6aS)-bis-tetrahydrofuran-3-yl-oxycarbonyl)amino-1,6-diphenyl-3-hydroxyhexane] | 1120 | > 100000 |  | inhibition at 0.0022 µM (HIV-1 protease; pH 4.5): 50%
Nc1ccc(Cl)c(C(=O)N[C@@H](Cc2ccccc2)[C@@H](O)C[C@H](Cc2ccccc2)NC(=O)O[C@H]2CO[C@H]3OCC[C@H]32)c1 [Example 62, (2S,3S,5S)-2-(3-Amino-6-chloro-benzoyl)amino-5-((3R,3aS,6aR)-bis-tetrahydrofuran-3-yl-oxycarbonyl)amino-1,6-diphenyl-3-hydroxyhexane] | 81 | > 100000 | 70 | 
Nc1ccc(Cl)c(C(=O)N[C@@H](Cc2ccccc2)[C@@H](O)C[C@H](Cc2ccccc2)NC(=O)O[C@@H]2CO[C@@H]3OCC[C@@H]32)c1 [Example 63, (2S,3S,5S)-2-(3-Amino-6-chloro-benzoyl)amino-5-((3S,3aR,6aS)-bis-tetrahydrofuran-3-yl-oxycarbonyl)amino-1,6-diphenyl-3-hydroxyhexane] | 1560 | > 100000 |  | inhibition at 0.0029 µM (HIV-1 protease; pH 4.5): 50%
O=C(N[C@@H](Cc1ccccc1)C[C@H](O)[C@H](Cc1ccccc1)NC(=O)c1ccc(O)cc1)O[C@H]1CO[C@H]2OCC[C@H]21 [Example 64, (2S,3S,5S)-2-(4-Hydroxy-benzoyl)amino-5-((3R,3aS,6aR)-bis-tetrahydrofuran-3-yl-oxycarbonyl)amino-1,6-diphenyl-3-hydroxyhexane] | 200 | > 100000 | 64 | 
O=C(N[C@@H](Cc1ccccc1)C[C@H](O)[C@H](Cc1ccccc1)NC(=O)c1ccccc1)O[C@H]1CO[C@H]2OCC[C@H]21 [Example 68, (2S,3S,5S)-2-(Benzoyl)amino-5-((3R,3aS,6aR)-bis-tetrahydrofuran-3-yl-oxycarbonyl)amino-1,6-diphenyl-3-hydroxyhexane] | 233 | > 32000 | 65 | 
Nc1ccc(C(=O)N[C@@H](Cc2ccccc2)[C@@H](O)C[C@H](Cc2ccccc2)NC(=O)O[C@H]2CO[C@H]3OCC[C@H]32)c(Cl)c1 [Example 71, (2S,3S,5S)-2-(4-Amino-2-chloro-benzoyl)amino-5-((3R,3aS,6aR)-bis-tetrahydrofuran-3-yl-oxycarbonyl)amino-1,6-diphenyl-3-hydroxyhexane] | 101 | > 100000 | 72 | 
Cc1ccc(O)c(C)c1OCC(=O)N[C@@H](Cc1ccccc1)C[C@H](O)[C@H](Cc1ccccc1)NC(=O)O[C@H]1CO[C@H]2OCC[C@H]21 [Example 74, (2S,3S,5S)-5-(2,6-Dimethyl-3-hydroxy-phenoxyacetyl)amino-2-((3R,3aS,6aR)-bis-tetrahydrofuran-3-yl-oxycarbonyl)amino-1,6-diphenyl-3-hydroxyhexane] | 7 | 50500 | 89 | 
CC(C)c1nc(CN(C)C(=O)N[C@H](C(=O)N[C@@H](Cc2ccccc2)C[C@H](O)[C@H](Cc2ccccc2)NC(=O)OCc2cncs2)C(C)C)cs1 [ritonavir] |  |  |  | blood levels of the co-administered compound of this invention [2]: increases blood levels; half-life of the co-administered compound of this invention [2]: increases half-life; time to peak plasma concentration of the co-administered compound of this invention [2]: increases the time to peak plasma concentration
